According to patent US10899737B2, “Piperazine carbamates and methods of making and using same” (Lundbeck La Jolla Research Center, Inc., priority 2016, dated 2021):

Experiments:
Type in all cases: biochemical
ABHD6 [1] = biological target: T1, ABHD6 (Mus musculus, UniProt Q8R2Y0); assay: In vitro competitive activity-based protein profiling (mouse), ABHD6; conditions: 1 μM inhibitor, mouse brain membrane fraction or cell lysates; read-out: ABHD6 % inh. 1 μM (mouse)
T1 construct: Proteomes (mouse brain membrane fraction or cell lysates); from tissue; host or cells: mouse brain membrane fraction or cell lysates
T1 sequence (Q8R2Y0 1-336): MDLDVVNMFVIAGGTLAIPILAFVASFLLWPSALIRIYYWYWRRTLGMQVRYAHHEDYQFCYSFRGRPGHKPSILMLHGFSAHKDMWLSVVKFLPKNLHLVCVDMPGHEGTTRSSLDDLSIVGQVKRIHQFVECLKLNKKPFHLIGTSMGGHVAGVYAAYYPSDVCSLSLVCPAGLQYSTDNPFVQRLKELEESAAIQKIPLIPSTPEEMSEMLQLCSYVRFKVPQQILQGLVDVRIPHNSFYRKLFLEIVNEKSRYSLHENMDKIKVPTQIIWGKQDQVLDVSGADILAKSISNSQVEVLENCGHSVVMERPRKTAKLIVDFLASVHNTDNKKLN
Procedure: (§1) In Vitro Competitive Activity-Based Protein Profiling (Mouse).
(§2) Proteomes (mouse brain membrane fraction or cell lysates) (50 μL, 1.0 mg/mL total protein concentration) were preincubated with varying concentrations of inhibitors at 37° C. After 30 min, FP-Rh (1.0 μL, 50 μM in DMSO) was added and the mixture was incubated for another 30 min at 37° C. Reactions were quenched with SDS loading buffer (50 μL-4×) and run on SDS-PAGE. Following gel imaging, serine hydrolase activity was determined by measuring fluorescent intensity of gel bands corresponding to MAGL and ABHD6 using ImageJ 1.49 k software. Data from this assay is shown in Table 1 (% inhibition at 1 μM).

MAGL [2] = biological target: T2, MAGL (Homo sapiens, UniProt Q99685); assay: In vitro competitive activity-based protein profiling (human), MAGL; conditions: for inhibition at 1 µM: 1 μM inhibitor, human proteome, 30 min preincubation at 37° C, read-out: MAGL % inh. 1 μM (human); for IC50: human PC3
T2 construct: Proteomes (human prefrontal cortex or cell membrane fractions); from tissue
T2 sequence (Q99685 1-303): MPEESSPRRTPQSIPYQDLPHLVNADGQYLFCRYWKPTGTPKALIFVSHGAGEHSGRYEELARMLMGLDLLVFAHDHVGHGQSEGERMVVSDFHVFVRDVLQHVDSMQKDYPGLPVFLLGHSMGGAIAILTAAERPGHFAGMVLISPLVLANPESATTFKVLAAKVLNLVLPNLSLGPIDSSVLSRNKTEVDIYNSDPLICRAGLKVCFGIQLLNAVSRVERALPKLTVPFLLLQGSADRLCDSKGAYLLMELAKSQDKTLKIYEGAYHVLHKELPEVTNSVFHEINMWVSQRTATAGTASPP
Procedure: (§3) In Vitro Competitive Activity-Based Protein Profiling (Human).
(§4) Proteomes (human prefrontal cortex or cell membrane fractions) (50 μL, 1.0-2.0 mg/mL total protein concentration) were preincubated with varying concentrations of inhibitors at 37° C. After 30 min, FP-Rh or JW912 (1.0 μL, 50 μM in DMSO) was added and the mixture was incubated for another 30 min at room temperature. Reactions were quenched with SDS loading buffer (15 μL-4×) and run on SDS-PAGE. Following gel imaging, serine hydrolase activity was determined by measuring fluorescent intensity of gel bands corresponding to MAGL and ABHD6 using ImageJ 1.49 k software.

MAGL [3] = biological target: T3, MAGL (Mus musculus, UniProt O35678); assay: In vitro competitive activity-based protein profiling (mouse), MAGL; conditions: 1 μM inhibitor, mouse brain membrane fraction or cell lysates; read-out: MAGL % inh. 1 μM (mouse)
T3 construct: Proteomes (mouse brain membrane fraction or cell lysates); from tissue; host or cells: mouse brain membrane fraction or cell lysates
T3 sequence (O35678 1-303): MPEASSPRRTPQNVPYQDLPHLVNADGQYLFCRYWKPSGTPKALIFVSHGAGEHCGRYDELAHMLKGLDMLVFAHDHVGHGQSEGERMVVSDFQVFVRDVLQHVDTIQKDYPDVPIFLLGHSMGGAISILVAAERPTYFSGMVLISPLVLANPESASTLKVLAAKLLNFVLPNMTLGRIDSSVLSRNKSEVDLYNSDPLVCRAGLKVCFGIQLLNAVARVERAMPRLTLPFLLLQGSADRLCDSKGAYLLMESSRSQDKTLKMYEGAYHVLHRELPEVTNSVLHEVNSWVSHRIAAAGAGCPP
Procedure: as §1, §2

ABHD6 [4] = biological target: T4, ABHD6 (Homo sapiens, UniProt Q9BV23); assay: In vitro competitive activity-based protein profiling (human), ABHD6; conditions: human PC3
T4 construct: Proteomes (human prefrontal cortex or cell membrane fractions); endogenous in cells; human prefrontal cortex
T4 sequence (Q9BV23 1-337): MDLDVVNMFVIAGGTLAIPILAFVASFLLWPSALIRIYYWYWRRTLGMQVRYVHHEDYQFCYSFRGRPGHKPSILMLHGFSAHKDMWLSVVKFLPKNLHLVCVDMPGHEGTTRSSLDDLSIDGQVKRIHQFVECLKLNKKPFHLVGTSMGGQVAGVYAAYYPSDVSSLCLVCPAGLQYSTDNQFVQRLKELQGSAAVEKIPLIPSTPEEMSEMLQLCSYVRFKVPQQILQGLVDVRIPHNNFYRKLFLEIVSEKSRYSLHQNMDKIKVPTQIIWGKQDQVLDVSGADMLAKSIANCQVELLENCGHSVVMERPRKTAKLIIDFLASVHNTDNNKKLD
Procedure: as §3, §4

SMILES | inhibition at 1 µM (ABHD6 [1]) | inhibition at 1 µM (MAGL [2]) | IC50 (MAGL [2]) | inhibition at 1 µM (MAGL [3]) | IC50 (ABHD6 [4])
O=C(OC(C(F)(F)F)C(F)(F)F)N1CCN(Cc2cc(C(F)(F)F)cc(C3(C(=O)O)CCCC3)c2)CC1 [Example 1, 1-(3-((4-(((1,1,1,3,3,3-Hexafluoropropan-2-yl)oxy)carbonyl)piperazin-1-yl)methyl)-5-(trifluoromethyl)phenyl)cyclopentane-1-carboxylic Acid] | ≥ 75% | ≥ 75% | ≤ 0.1 µM | ≥ 75% | 0.1 to 1 µM
Cc1ccc(CN2CCN(C(=O)OC(C(F)(F)F)C(F)(F)F)CC2)c(C2(C(=O)O)CCCC2)c1 [Example 14, 1-(2-((4-(((1,1,1,3,3,3-Hexafluoropropan-2-yl)oxy)carbonyl)piperazin-1-yl)methyl)-5-methylphenyl)cyclopentane-1-carboxylic Acid] | 0 to 25% | ≥ 75% | ≤ 0.1 µM | ≥ 75% | 1 to 10 µM
CC(C)(C(=O)O)N1CC2CN(c3cc(C(F)(F)F)ccc3CN3CCN(C(=O)OC(C(F)(F)F)C(F)(F)F)CC3)CC2C1 (centres unmarked) [Example 16, 2-(5-(2-((4-(((1,1,1,3,3,3-Hexafluoropropan-2-yl)oxy)carbonyl)piperazin-1-yl)methyl)-5-(trifluoromethyl)phenyl)hexahydropyrrolo[3,4-c]pyrrol-2(1H)-yl)-2-methylpropanoic Acid] | 0 to 25% | ≥ 75% | ≤ 0.1 µM | ≥ 75% | 1 to 10 µM
N#Cc1ccc(CN2CCN(C(=O)OC(C(F)(F)F)C(F)(F)F)CC2)c(C2(C(=O)O)CCCC2)c1 [Example 30, 1-(5-Cyano-2-((4-(((1,1,1,3,3,3-hexafluoropropan-2-yl)oxy)carbonyl)piperazin-1-yl)methyl)phenyl)cyclopentane-1-carboxylic Acid] | 0 to 25% |  |  | ≥ 75% | 
N#Cc1ccc(CN2CCN(C(=O)OC(C(F)(F)F)C(F)(F)F)CC2)c(-c2ccn(CC(=O)O)n2)c1 [Example 50, 2-(3-(5-cyano-2-((4-(((1,1,1,3,3,3-hexafluoropropan-2-yl)oxy)carbonyl)piperazin-1-yl)methyl)phenyl)-1H-pyrazol-1-yl)acetic acid] | ≥ 75% | ≥ 75% |  | ≥ 75% | 
O=C(O)C1CCN(c2cc(Cl)c(F)cc2CN2CCN(C(=O)OC(C(F)(F)F)C(F)(F)F)CC2)CC1 [Example 60, 1-(5-chloro-4-fluoro-2-((4-(((1,1,1,3,3,3-hexafluoropropan-2-yl)oxy)carbonyl)piperazin1-yl)methyl)phenyl)piperidine-4-carboxylic acid] | ≥ 75% | ≥ 75% |  | ≥ 75% | 
O=C(O)C1CCCCN1c1cc(C(F)(F)F)ccc1CN1CCN(C(=O)OC(C(F)(F)F)C(F)(F)F)CC1 (centres unmarked) [Example 65, 1-(2-((4-(((1,1,1,3,3,3-hexafluoropropan-2-yl)oxy)carbonyl)piperazin-1-yl)methyl)-5-(trifluoromethyl)phenyl)piperidine-2-carboxylic acid] | 0 to 25% | 50 to 75% |  | ≥ 75% | 
O=C(O)C1CCN(c2c(CN3CCN(C(=O)OC(C(F)(F)F)C(F)(F)F)CC3)cccc2C(F)(F)F)CC1 [Example 74, 1-(2-((4-(((1,1,1,3,3,3-hexafluoropropan-2-yl)oxy)carbonyl)piperazin-1-yl)methyl)-6-(trifluoromethyl)phenyl)piperidine-4-carboxylic acid] | ≥ 75% | ≥ 75% |  | ≥ 75% | 
Cc1cc(N2CCC(C(=O)O)CC2)c(CN2CCN(C(=O)OC(C(F)(F)F)C(F)(F)F)CC2)cc1F [Example 76, 1-(4-fluoro-2-((4-(((1,1,1,3,3,3-hexafluoropropan-2-yl)oxy)carbonyl)piperazin-1-yl)methyl)-5-methylphenyl)piperidine-4-carboxylic acid] |  |  | ≤ 0.1 µM |  | 1 to 10 µM
O=C(O)C1CN(c2cc(C(F)(F)F)ccc2CN2CCN(C(=O)OC(C(F)(F)F)C(F)(F)F)CC2)C1 [Example 79, 1-(2-((4-(((1,1,1,3,3,3-hexafluoropropan-2-yl)oxy)carbonyl)piperazin-1-yl)methyl)-5-(trifluoromethyl)phenyl)azetidine-3-carboxylic acid] | ≥ 75% | ≥ 75% |  | ≥ 75% | 

Now from value to compound:

inhibition at 1 µM (ABHD6 [1]) | inhibition at 1 µM (MAGL [2]) | IC50 (MAGL [2]) | inhibition at 1 µM (MAGL [3]) | IC50 (ABHD6 [4]) | SMILES
0 to 25% | ≥ 75% | 0.1 to 1 µM | ≥ 75% | 1 to 10 µM | O=C(O)Cn1ccc(-c2ccccc2CN2CCN(C(=O)OC(C(F)(F)F)C(F)(F)F)CC2)n1 [Example 11, 2-(3-(2-((4-(((1,1,1,3,3,3-Hexafluoropropan-2-yl)oxy)carbonyl)piperazin-1-yl)methyl)phenyl)-1H-pyrazol-1-yl)acetic Acid]
50 to 75% | ≥ 75% |  | ≥ 75% |  | O=C(O)CN1CCC(C2CCN(c3cc(Cl)ccc3CN3CCN(C(=O)OC(C(F)(F)F)C(F)(F)F)CC3)CC2)C1 (centres unmarked) [Example 33, 2-(3-(1-(5-Chloro-2-((4-(((1,1,1,3,3,3-hexafluoropropan-2-yl)oxy)carbonyl)piperazin-1-yl)methyl)phenyl)piperidin-4-yl)pyrrolidin-1-yl)acetic Acid]
0 to 25% | ≥ 75% |  | ≥ 75% |  | CN1CCN(c2cc(C(F)(F)F)ccc2CN2CCN(C(=O)OC(C(F)(F)F)C(F)(F)F)CC2)CC1C(=O)O (centres unmarked) [Example 58, 4-(2-((4-(((1,1,1,3,3,3-hexafluoropropan-2-yl)oxy)carbonyl)piperazin-1-yl)methyl)-5-(trifluoromethyl)phenyl)-1-methylpiperazine-2-carboxylic acid]
50 to 75% | ≥ 75% |  | ≥ 75% |  | O=C(O)C1CCN(c2c(Cl)cccc2CN2CCN(C(=O)OC(C(F)(F)F)C(F)(F)F)CC2)CC1 [Example 75, 1-(2-chloro-6-((4-(((1,1,1,3,3,3-hexafluoropropan-2-yl)oxy)carbonyl)piperazin-1-yl)methyl)phenyl)piperidine-4-carboxylic acid]
≥ 75% |  |  | ≥ 75% |  | O=C(O)C1CCN(c2ccc(CN3CCN(C(=O)OC(C(F)(F)F)C(F)(F)F)CC3)cc2)CC1 [Example 77, 1-(4-((4-(((1,1,1,3,3,3-hexafluoropropan-2-yl)oxy)carbonyl)piperazin-1-yl)methyl)phenyl)piperidine-4-carboxylic acid]
50 to 75% | ≥ 75% |  | ≥ 75% |  | C#Cc1ccc(CN2CCN(C(=O)OC(C(F)(F)F)C(F)(F)F)CC2)c(N2CCC(C(=O)O)CC2)c1 [Example 82, 1-(5-ethynyl-2-((4-(((1,1,1,3,3,3-hexafluoropropan-2-yl)oxy)carbonyl)piperazin-1-yl)methyl)phenyl)piperidine-4-carboxylic acid]
